Experimental data from paper PMC8333425, “Discovery of a dual Ras and ARF6 inhibitor from a GPCR endocytosis screen” (Nature Communications, 2021).

How the values were obtained:
[1] = system: β2AR; experiment: Endosomal BRET assay of isoproterenol-mediated β2AR internalization; type: cell-based, human
From the text: We performed a HT campaign in HEK293 cells using the bystander endosomal BRET sensor, which consists of a Renilla luciferase (RlucII)-tagged AT1R and an acceptor renilla GFP (rGFP) anchored to endosomes through an Endofin-FYVE (Endo-rGFP) domain[12]. AngII-mediated trafficking of AT1R to endosomes was screened against commercial libraries of ~115,000 small molecules (Fig. 1a and Supplementary Data 1). Because our assay is based on luminescence and fluorescence, we excluded 6610 compounds that quenched more than 50% of the luciferase or GFP signals. After excluding 5 AT1R antagonists, we conserved hit compounds blocking by more than 40%, as well as those potentiating by more than 100% receptor internalization. From this collection of 943 compounds, a second validation on AT1R internalization was performed using the same BRET assay, as well as on the agonist-mediated B2R internalization, this time using B2R-RlucII and Endo-rGFP. Only compounds that were revalidated on AT1R and affected B2R endocytosis were kept, which included forty hits (20 potentiators and 20 inhibitors) (Fig. 1b and Supplementary Data 2). We focused on inhibitors that were commercially available at the beginning of the project and tested their cell toxicity by microscopy, looking at cells expressing B2R tagged with YFP, which highlights cell contours and potential morphological changes, such as rounding up of cells following treatment with 50 μM of the compounds that may have indicated cell death. None of the inhibitors tested caused abnormal cell morphological changes when cells were treated with compounds as compared to DMSO-treated cells. Inhibitors were also assessed in terms of structure novelty, derivatization potential, and commercial availability of analogs (within 95–98% similarity from Tanimoto metric, Sci-Finder, https://scifinder-n.cas.org), for structure-activity relationship studies (SAR). They were scored 1–5, from best to worst. We excluded compounds with potential nucleophilic reactivity (e.g., Michael addition: compounds 7, 26, and 27), those reported to have biological activities (compounds 8, 20, 25, 30, and 35) and/or showing autofluorescence (compound 26). Compound 19 ranked high, but only had one other molecule with a similar structure available. Although other molecules could be interesting in their own rights as endocytosis inhibitors (e.g., compounds 1, 9, 11, 12, 13, 24, 31, and 37), we focused on compound 21 (Fig. 1c) because not only did it rank high in our analysis, but it was also the only compound with substantially more similar analogs commercially available at the time of these investigations. In the screen and the follow-up validation assay, 21 inhibited more than 50% AT1R internalization and more than 65% B2R internalization (Supplementary Data 2). […] Because β-arrestins are critically involved in GPCR endocytosis and trafficking in cells, we assessed 21’s effects on β-arrestins’ recruitment to AT1R and B2R at the PM using a BRET assay, as well as their trafficking into endosomes by microscopy.
HEK293SL cells were seeded at a density of 7.5 × 10^5 cells per 100-mm dish and 24 h later, transiently transfected as such. For receptor internalization experiments, cells were transfected with 0.12 μg AT1R-RlucII, B2R-RlucII, or β2AR-RlucII and 0.48 μg of either rGFP-CAAX (to assess removal from the PM) or rGFP-FYVE (to assess accumulation in the endosomes). For β-arrestin recruitment assays, cells were transfected with 0.48 μg of receptor-YFP along with 0.12 μg of β-arrestin-RlucII. For β-arrestin/AP-2 binding experiments, cells were transfected with 1 μg Flag-AT1R, 1 μg β2-Adaptin-YFP, and 0.12 μg β-arrestin2-RlucII. For G protein activation, cells were transfected with 3 μg of sp-Flag-AT1R along with either 4.5 μg of the Gαq-polycistronic BRET sensor or 0.24 μg of the Gαi3-RlucII and 0.6 μg of GFP10-Gγ2 and Gβ1 sensors or 0.12 μg PKN-RBD-RlucII and 0.48 μg of rGFP-CAAX. […]

[2] = system: B2R; experiment: Confocal microscopy of YFP-tagged B2R internalization; type: cell-based, human; conditions: 50 μM; BK
Experimental: (§1) One day before transfection, cells were seeded in 35-mm glass-bottom dishes (MatTek Corporation) at a density of 1 × 10^5 cells per dish. For the recordings of receptor internalization, HEK293 SL cells were transfected with 2 μg of AT1R-YFP. For the recordings of β-arrestin-2 recruitment to the receptor, HEK293SL cells were transfected with 50 ng of β-arrestin2-YFP and 250 ng of Flag-AT1R or HA-B2R. Forty-eight hours post-transfection, cells were serum starved, preincubated with DMSO (0.1% final concentration) or Rasarfin (50 μM) for 30 min at 37 °C. AT1R-expressing cells were stimulated with angiotensinII (AngII; 100 nM) and B2R-expressing cells were stimulated with bradykinin (BK; 1 μM) for 30 min (receptor-YFP) or 15 min (β-arrestin2-YFP). Cells were imaged with Zeiss LSM-510 and/or LSM-710 laser scanning confocal microscope. To detect YFP, […] and BP 505–550 nm emission filter. Images (2048 × 2048) were collected using a 63x oil immersion lens.

[3] = system: β-arrestin2; experiment: Confocal microscopy of β-arrestin2-YFP trafficking with AT1R; type: cell-based, human; conditions: 50 μM; AngII
Experimental: as §1

[4] = system: β-arrestin2; experiment: Confocal microscopy of β-arrestin2-YFP trafficking with B2R; type: cell-based, human; conditions: 50 μM; BK
Experimental: as §1

[5] = target: H-Ras (Homo sapiens, UniProt P01112); experiment: In vitro mant-GTP exchange assay, purified H-Ras with 40 mM EDTA; type: biochemical; set-up: the cDNA of H-Ras (full length) was obtained by RT-PCR of HEK293SL; GST (N); made in house; host or cells: E. coli BL21
Sequence of H-Ras (P01112 whole entry): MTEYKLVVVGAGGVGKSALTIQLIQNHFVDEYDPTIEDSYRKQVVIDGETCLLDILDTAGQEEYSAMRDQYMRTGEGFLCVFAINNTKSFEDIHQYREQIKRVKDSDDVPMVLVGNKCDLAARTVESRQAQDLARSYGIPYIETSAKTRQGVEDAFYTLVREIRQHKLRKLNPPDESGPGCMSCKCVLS
Experimental: Ras activity was assessed in a 384-well black bottom plate using the mant-GTP exchange factor assay that measures the uptake of the fluorescent nucleotide analog N-methylanthraniloyl-GTP (mant-GTP) into GTPases. For Ras activation, 2X exchange buffer, 1.66 μg of purified pGEX-6P-1-H-Ras or pGEX-6P-1-K-Ras-WT or pGEX-6P-1-K-Ras-Y32A were added per well in presence of DMSO, different concentrations of Rasarfin (as indicated) or 50 µM of compounds 21.4, 21.7, or 21.8. Using the Infinite 200 Pro plate reader (Tecan) with filters set at 360 nm and 440 nm for detecting the excitation and emissions, respectively, and temperature set at 20 °C, 5 readings were recorded every 5 s before the addition of either H2O, 40 mM EDTA or 0.66 μg purified SOS1. The fluorescence of mant-GTP uptake was measured every 30 sec for 30 min and quantified as the delta relative fluorescence units (RFU), which was calculated as the RFU post-addition minus the 5 averaged RFU pre-addition, per condition.

## CC(C)C(=O)N1CCN(c2ccc(NC(=O)c3cc4ccccc4o3)cc2Cl)CC1 [Compound 21]
[1]; Homo sapiens, read-out: IC50 for inhibition of isoproterenol-mediated β2AR internalization into endosomes
  IC50: 15 µM
[1]; Log [Comp21] (M) -4.3
  β2AR internalization into endosomes, ligand-promoted BRET (Mean): 36.2133 percent compared to DMSO
[1]; Log [Comp21] (M) -4.6
  β2AR internalization into endosomes, ligand-promoted BRET (Mean): 48.1993 percent compared to DMSO
[1]; Log [Comp21] (M) -5
  β2AR internalization into endosomes, ligand-promoted BRET (Mean): 64.3705 percent compared to DMSO
[1]; Log [Comp21] (M) -5.3
  β2AR internalization into endosomes, ligand-promoted BRET (Mean): 89.3672 percent compared to DMSO
[1]; Log [Comp 21] (M) -6
  β2AR internalization into endosomes, ligand-promoted BRET (Mean): 95.9498 percent compared to DMSO
[1]; Log [Comp21] (M) -6.3
  β2AR internalization into endosomes, ligand-promoted BRET (Mean): 95.3626 percent compared to DMSO
[1]; Log [Comp 21] (M) -7
  β2AR internalization into endosomes, ligand-promoted BRET (Mean): 95.4832 percent compared to DMSO
[2]
  B2R localization by microscopy: remained trapped at the PM
[3]
  β-arrestin trafficking with AT1R into endosomes (microscopy): prevented β-arrestins’ trafficking with receptors into endosomes
[4]
  β-arrestin trafficking with B2R into endosomes (microscopy): prevented β-arrestins’ trafficking with receptors into endosomes
[5]
  mant-GTP binding to purified H-Ras promoted by EDTA: also inhibited mant-GTP binding promoted by EDTA
